Reference: article PMC12418948, “Intranasal Administration of KCNN2 Blocking Peptide Improves Deficits in Cognitive Flexibility in Mouse Model of Fetal Alcohol Spectrum Disorders” (International Journal of Neuropsychopharmacology, 2025)
Entries after “also recorded” stand apart in the source; their conditions may differ. Positions of bridges follow the written chain, without caps; N, C: chain ends. Non-standard residues stand in square brackets, D forms with d. Residues, ends and D or L forms follow the SMILES beside them. Dab = NCC[C@H](N)C(=O)O

Tests used:
[1] = test system: KCNN2; experiment: Intranasal delivery to PFC, immunohistochemistry for biotin and KCNN2; format: in vivo, mouse (CD-1); conditions: PFC in addition to motor cortex
Experimental: Mice were deeply anesthetized with isoflurane (Henry Schein, OH) and perfused through the ascending aorta with ice cold 4% paraformaldehyde (PFA) following a standard laboratory protocol. Brains were collected and post-fixed in 4% PFA at 4°C overnight, followed by incubation in 10% and 30% sucrose in PBS at 4°C for 24 hours. Coronal sections at 60 μm thickness were made using a cryostat (CM3050S; Leica, Germany). Free floating sections were incubated with hydrogen peroxide in methanol (1:4) solution at −20°C for 20 minutes to inactivate endogenous peroxidase activity. […]
Lei-Dab7 or biotinylated Lei-Dab7 (Smartox Biotechnology, France) was dissolved in PBS and administered to mice intranasally at 3.0 μg/kg/day. […] Physiological monitoring was recorded at 30 minutes and 24 hours post administration by using PhysioSuite (Kent Scientific, CT).
KCNN2, NeuN, GFAP, IBA1, and biotin-positive cells were quantified. […] Allen Brain Atlas was used to define different brain regions visualized by DAPI staining, and single-plane images from defined regions were used for the quantification. The researcher conducting the quantification was blinded to treatment groups throughout the analysis to minimize bias. The size of the region of interest was determined for each analysis to include a sufficient number of labeled cells with clear and detailed staining. […]

[2] = test system: Jurkat (clone E6-1) cells; experiment: ATP cell viability (cytotoxicity) assay, CellTiter-Glo 2.0; format: cell-based, human
Experimental: Potential cytotoxicity of Lei-Dab7 was assessed by an ATP detection assay. Jurkat (clone E6-1) cells were used as they express KCNN2 channels constitutively and have been used to assess the cytotoxicity of compounds that block KCNN2.[37]^,[38] After recovery from cryopreservation, cells were plated into V-bottom, 96-well plates (2 × 10^4 cells per well), and the compound (Lei-Dab7) or control (negative control: media alone or 10% PBS in media; positive control: approximately 1% sodium dodecyl sulfate in media) was added into the culture media. After incubation for 24 hours, cells were assessed for viability using a CellTiter-Glo 2.0 kit (Promega, WI). Briefly, CellTiter-Glo 2.0 reagent was thawed and warmed to approximately 22°C, then mixed by gentle inversion. Once thoroughly mixed, 100 μL of reagent was distributed into each well, and the plates were gently mixed for approximately 2 minutes on an orbital shaker for cell lysis. The plates were then incubated for approximately10 minutes at room temperature to stabilize the luminescent signal. The amount of light produced from each well was quantified using a Cytation 5 plate reader (BioTek, VT). Cell viability was calculated as a percentage of the mean of the negative control […] for each well. […]

## CC[C@H](C)[C@@H]1NC(=O)[C@@H]2CSSC[C@H](NC(=O)[C@H](Cc3ccccc3)NC(=O)[C@H](C)N)C(=O)N[C@@H](CC(N)=O)C(=O)N[C@@H](CC(C)C)C(=O)N[C@@H](CCCNC(=N)N)C(=O)N[C@@H](CCN)C(=O)N[C@H]3CSSC[C@H](NC(=O)[C@H](CCCCN)NC(=O)[C@H](CC(=O)O)NC(=O)CNC1=O)C(=O)N[C@@H](CCC(=O)O)C(=O)N[C@H](C(=O)N[C@H](C(=O)N[C@@H](CCCCN)C(=O)N[C@@H](Cc1c[nH]cn1)C(N)=O)C(C)C)CSSC[C@H](NC(=O)[C@H](CO)NC(=O)[C@H](CC(C)C)NC(=O)[C@H](CCC(N)=O)NC3=O)C(=O)N[C@@H](CCCNC(=N)N)C(=O)N[C@@H](CO)C(=O)N[C@@H](CC(C)C)C(=O)NCC(=O)N[C@@H](CC(C)C)C(=O)N[C@@H](CC(C)C)C(=O)NCC(=O)N[C@@H](CCCCN)C(=O)N2 [Lei-Dab7, Leiurotoxin-1 Dab7] (H-AFCNLR[Dab]CQLSCRSLGLLGKCIGDKCECVKH-NH2; disulfide 3-21, 8-26, 12-28)
[1]
  delivery to target brain regions: efficiently reaches the target in the brain; also recorded: effectively reaches its target regions, including the PFC (Figs. 3, 4) in addition to the motor cortex
[2]; 24-hour culture, ATP cell viability assay, even as high as at 100 μM
  cytotoxicity: did not show any cytotoxicity
[2]; in vitro, abstract/introduction wording
  cytotoxicity (summary wording): negligible cytotoxicity; also recorded: no detectable cytotoxicity
